According to article PMC5361079 (Scientific Reports, 2017):
Read-outs that look alike come from different tables or passages of the source.

Key:
hiPSC-CM syncytia = assay: Spontaneous FP rate and IMP amplitude/beating rate in hiPSC-CM syncytia (RTCA CardioECR / RTCA Cardio); assay type: cell-based, human; details: for Effect on FP rate / Effect on IMP amplitude: prodrug co-administered with 0.3 μM amiodarone, steady state (4 h), spontaneously beating hiPSC-CM syncytia
Protocol: hiPSC-CMs (iCells®) from Cellular Dynamics International (CDI, Madison, WI, USA) were seeded onto 48-well CardioECR or 96-well Cardio E-Plates® (ACEA Biosciences Inc., San Diego, CA, USA) coated with 10 μg/mL fibronectin (Sigma Aldrich, Catalog# F1141) at 30,000 cells/well, following manufacturer’s recommendations. Cells were maintained in culture (37 °C, 5% CO2) for a period of 14 days with iCell Maintenance® media (CDI, Madison, WI, USA) exchanged every 2–3 days. Compound addition was only performed on or after Day 14 following cell seeding.
Compound stock solutions were prepared in 100% DMSO or H2O. On the day of compound addition, the media was exchanged with fresh iCell Maintenance® media and allowed to equilibrate for at least 3 h in the incubator. The plates were read on an xCELLigence® RTCA CardioECR or RTCA Cardio (ACEA Biosciences Inc., San Diego, CA, USA). Control pre-reads to establish a baseline were recorded for at least 45 minutes (4 reads at 15-min intervals) prior to compound addition. The compound stock solutions were diluted into iCell Maintenance® media and quickly added to the plate. The plate was continuously monitored for at least 18 h following compound addition. IMP data were sampled at 12 ms (83 Hz), while FP rate data were collected at 0.1 ms (10 KHz). Attachment, growth and viability of syncytia were monitored by means of the baseline IMP signal, as previously described. IMP and FP signals were only interpreted if the baseline IMP was maintained throughout the measurement period (usually ≤18 hrs) at ≥70% of the value before test compound application (pre-read value).

hiPSC-CMs = assay: Intracellular prodrug, cleavage intermediate metabolite and NTP metabolite concentrations in hiPSC-CMs; assay type: in vitro ADME, human
Protocol: Approximately 18 h before dosing, iCell hiPSC-CMs were switched to iCell cardiomyocyte maintenance media free of Penicillin/Streptomycin. […] […] After the corresponding treatment, cells were washed 2x with 200 μL of ice-cold magnesium- and calcium-free PBS buffer. Cells were then lysed in 100 μL of ice-cold lysis solution (70/30 methanol/water containing 20 mM EDTA and 20 mM EGTA, pH 8) by pipetting up and down 5 times. Plates were sealed and transferred on dry ice for determination of prodrug, cleavage intermediate metabolite, and NTP metabolite concentrations. Intracellular prodrug concentrations were measured using a reversed phase HPLC- high resolution mass spectrometry method. A dimethylhexylamine based ion-pairing HPLC-MS/MS method was used to measure intracellular cleavage intermediate metabolite and NTP metabolite concentrations. Intracellular concentrations (pmol/million cells) of prodrug, cleavage intermediate metabolite, and NTP metabolite were quantitated against calibration standards of the same analytes prepared from control iCell hiPSC-CM lysates.
For prodrug analyses, full scan high resolution mass spectrometry data was collected using an Exactive™ Orbitrap mass spectrometer with an electrospray source operated in the positive ion mode. Prodrug chromatograms were extracted from full scan high resolution mass spectrometry data for the masses indicated in Supplementary Table 5. Absence of endogenous interference(s) was verified by extracting the same ion from full scan high resolution mass spectrometry chromatograms of unspiked control cell lysates. For the cleavage intermediate metabolite and NTP metabolite an electrospray MS/MS method run on a SCIEX API 4000 mass spectrometer with turboV ionspray source was used in negative ion mode monitoring the transitions indicated in Supplementary Table 5. Absence of endogenous interference(s) was verified by monitoring of the same MRM transitions for unspiked control cell lysates. Measured intracellular prodrug, cleavage intermediate metabolite, and NTP metabolite concentrations (in pmol/million cells units) were tabulated (Table 2).

[1] = Cardiac tissue concentrations in anesthetized guinea pigs; assay type: in vivo, guinea pig; details: end of IV infusions, prodrug alone or + amiodarone
[2] = anesthetized guinea pigs, cited from earlier work
[3] = test system: anesthetized, male Dunkin-Hartley guinea pigs; assay: Heart rate in anesthetized guinea pigs, IV infusion; assay type: in vivo, guinea pig
Description: Adult, male Dunkin-Hartley guinea pigs (350–550 g) were anesthetized and instrumented as previously described[7][29].

[4] = Plasma concentration in anesthetized guinea pigs; details: IV
Description: Adult, male Dunkin-Hartley guinea pigs (350–550 g) were anesthetized and instrumented as previously described.

[5] = test system: conscious, male rhesus monkeys; assay: Heart rate, MBP and ECG intervals in conscious, restrained rhesus monkeys; assay type: in vivo, rhesus monkey
Protocol: (§1) Arterial BP and ECG waveforms from four chronically-instrumented male, rhesus monkeys (8-16 kg at time of study, approximately 5–8 years of age), were continuously recorded (Notocord-hem™ v 4.3.0.67) and analyzed as described. Prior to study, animals were acclimated to the restraint chair and the laboratory environment over multiple sessions. […] MNI-2 was formulated in 30% Captisol®. […] Samples were placed on wet ice, centrifuged at 4 °C and plasma removed and stored at −70 °C until analysis of concentration of test agents and any metabolites of interest.

[6] = Plasma concentration in conscious rhesus monkeys; details: at the end of the MNI-2+amiodarone experiment
Protocol: as §1

[7] = test system: anesthetized, male Dunkin-Hartley guinea pigs; details: cumulative IV infusion dose 2.5 mg/kg amiodarone alone; cited from earlier work
[8] = 10 μM prodrug in the presence of 0.3 μM amiodarone
[9] = 30 Min, SOF-3 mM, SOF + A (0.3 µM amiodarone) + Ebel, LOQ=17
[10] = hiPSC-CMs, 10 μM prodrug + 0.3 μM amiodarone, 4 Hours
[11] = hiPSC-CMs, 10 μM prodrug + 0.3 μM amiodarone, 30 Min
[12] = hiPSC-CMs, 10 μM prodrug + 0.3 μM amiodarone, 30 Min, BLOQ = below 17 pmol/million cells
[13] = hiPSC-CMs, 10 μM prodrug alone, 4 Hours
[14] = hiPSC-CMs, 10 μM prodrug alone, 30 Min
[15] = hiPSC-CMs, 10 μM prodrug alone, 30 Min, BLOQ = below 17 pmol/million cells
[16] = hiPSC-CMs, 10 μM prodrug + 0.3 μM amiodarone, 4 Hours, BLOQ = below 17 pmol/million cells
[17] = hiPSC-CMs, 10 μM prodrug alone, 4 Hours, BLOQ = below 17 pmol/million cells

Structure (SMILES): CC(C)OC(=O)[C@H](C)NP(=O)(OC[C@H]1O[C@@H](n2ccc(=O)[nH]c2=O)[C@](C)(F)[C@@H]1O)Oc1ccccc1 (stereo partly drawn) [sofosbuvir, isopropyl (2S)-2-[[[(2R,3R,4R,5R)-5-(2,4-dioxopyrimidin-1-yl)-4-fluoro-3-hydroxy-4-methyl-tetrahydrofuran-2-yl]methoxy-phenoxy-phosphoryl]amino]propanoate, reference compound]
- Change in IMP amplitude (RTCA Cardio) (hiPSC-CM syncytia; [8]): −97% ± 2%
- Change in beating rate (IMP-measured, RTCA Cardio) (hiPSC-CM syncytia; [8]): +146% ± 11%
- IMP amplitude (hiPSC-CM syncytia; 11 μM sofosbuvir co-applied with 0.3 μM amiodarone): below the limit of detection
- Effect on FP rate (hiPSC-CM syncytia): Concentration-dependent, steady-state effects
- Effect on IMP amplitude (hiPSC-CM syncytia): Concentration-dependent, steady-state effects
- Intracellular Concentration, Sofosbuvir (Prodrug) (hiPSC-CMs; 4 Hours, SOF-10 μM, SOF): 66.9 ± 6.8 pmol/million cells
- Intracellular Concentration, Sofosbuvir (Prodrug) (hiPSC-CMs; 4 Hours, SOF-3 mM, SOF): 19.6 ± 5.8 pmol/million cells
- Intracellular Concentration, Sofosbuvir (Prodrug) (hiPSC-CMs; 4 Hours, SOF-3 mM, SOF + A (0.3 µM amiodarone) + Ebel): 46.9 ± 8.9 pmol/million cells
- Intracellular Concentration, NTP Metabolite (hiPSC-CMs; 4 Hours, SOF-3 mM, SOF + A (0.3 µM amiodarone) + Ebel, LOQ=17): B LOQ
- Intracellular Concentration, NTP Metabolite (hiPSC-CMs; 4 Hours, SOF-3 mM, SOF, LOQ=17): B LOQ
- Intracellular Concentration, NTP Metabolite (hiPSC-CMs; 4 Hours, SOF-10 mM, SOF + A (0.3 µM amiodarone) + Ebel, LOQ=17): B LOQ
- Intracellular Concentration, Sofosbuvir (Prodrug) (hiPSC-CMs; 30 Min, SOF-10 μM, SOF + A (0.3 µM amiodarone) + Ebel): 53.4 ± 9.5 pmol/million cells
- Intracellular Concentration, Cleavage Intermediate Metabolite (hiPSC-CMs; 30 Min, SOF-10 μM, SOF + A (0.3 µM amiodarone) + Ebel, LOQ=17): B LOQ
- Intracellular Concentration, Sofosbuvir (Prodrug) (hiPSC-CMs; 30 Min, SOF-3 mM, SOF): 19.5 ± 0.9 pmol/million cells
- Intracellular Concentration, Cleavage Intermediate Metabolite (hiPSC-CMs; [9]): B LOQ
- Intracellular Concentration, NTP Metabolite (hiPSC-CMs; [9]): B LOQ
- Intracellular Concentration, NTP Metabolite (hiPSC-CMs; 30 Min, SOF-3 mM, SOF, LOQ=17): B LOQ
- Intracellular Concentration, NTP Metabolite (hiPSC-CMs; 30 Min, SOF-10 mM, SOF + A (0.3 µM amiodarone) + Ebel, LOQ=17): B LOQ
- Intracellular Concentration, NTP Metabolite (hiPSC-CMs; 30 Min, SOF-10 mM, SOF, LOQ=17): B LOQ
- Intracellular Concentration, NTP Metabolite (hiPSC-CMs; SOF-10 mM, 4 Hours, 2a (SAR164653) 50 mM, LOQ=17): B LOQ
- Intracellular Concentration, NTP Metabolite (hiPSC-CMs; SOF-10 mM, 4 Hours, 2a (SAR164653) 100 mM, LOQ=17): B LOQ
- Intracellular Concentration, NTP Metabolite (hiPSC-CMs; SOF-10 mM, 30 Min, 2a (SAR164653) 0 mM, LOQ=17): B LOQ
- Intracellular Concentration, NTP Metabolite (hiPSC-CMs; SOF-10 mM, 30 Min, 2a (SAR164653) 1 mM, LOQ=17): B LOQ
- Intracellular Concentration, NTP Metabolite (hiPSC-CMs; SOF-10 mM, 30 Min, 2a (SAR164653) 10 mM, LOQ=17): B LOQ
- Intracellular Concentration, NTP Metabolite (hiPSC-CMs; SOF-10 mM, 30 Min, 2a (SAR164653) 50 mM, LOQ=17): B LOQ
- Intracellular Concentration, NTP Metabolite (hiPSC-CMs; SOF-10 mM, 30 Min, 2a (SAR164653) 100 mM, LOQ=17): B LOQ
- Intracellular Concentration, Prodrug (hiPSC-CMs; [10]): 58.4 ± 6.0 pmol/million cells
- Intracellular Concentration, Prodrug (hiPSC-CMs; [11]): 45.6 ± 2.0 pmol/million cells
- Intracellular Concentration, NTP Metabolite (hiPSC-CMs; [12]): BLOQ
- Intracellular Concentration, Prodrug (hiPSC-CMs; [13]): 50.1 ± 2.1 pmol/million cells
- Intracellular Concentration, Prodrug (hiPSC-CMs; [14]): 46.7 ± 3.7 pmol/million cells
- Intracellular Concentration, NTP Metabolite (hiPSC-CMs; [15]): BLOQ*
- Cleavage intermediate metabolite and NTP metabolite in cardiac tissue [1]: present
- Cardiac sofosbuvir concentration ([2]; cumulative IV sofosbuvir + amiodarone): ~ 6 nmol/g tissue
- Cardiac sofosbuvir concentration ([2]; cumulative IV sofosbuvir alone): ~ 8 nmol/g tissue

Structure (SMILES): CC(C)OC(=O)[C@@H](C)NP(=O)(OC[C@H]1O[C@@H](n2ccc(=O)[nH]c2=O)[C@](C)(F)[C@@H]1O)Oc1ccccc1 (stereo partly drawn) [MNI-2, isopropyl (2R)-2-[[[(2R,3R,4R,5R)-5-(2,4-dioxopyrimidin-1-yl)-4-fluoro-3-hydroxy-4-methyl-tetrahydrofuran-2-yl]methoxy-phenoxy-phosphoryl]amino]propanoate]
- Effects on IMP-measured beating rate and IMP amplitude (hiPSC-CM syncytia; 10 μM prodrug combined with 0.3 μM amiodarone, up to 18 h): failed to evoke changes over each drug alone
- Effect on FP rate (hiPSC-CM syncytia): lack of effects
- Effect on IMP amplitude (hiPSC-CM syncytia): lack of effects
- Detection of cleavage intermediate metabolite or NTP in hiPSC-CMs (hiPSC-CMs; following application of prodrug (10 μM) ± amiodarone): no measurable concentrations
- Intracellular Concentration, Prodrug (hiPSC-CMs; [10]): 61.0 ± 3.3 pmol/million cells
- Intracellular Concentration, Cleavage Intermediate Metabolite (hiPSC-CMs; [16]): BLOQ
- Intracellular Concentration, NTP Metabolite (hiPSC-CMs; [16]): BLOQ
- Intracellular Concentration, Prodrug (hiPSC-CMs; [11]): 54.8 ± 3.3 pmol/million cells
- Intracellular Concentration, Cleavage Intermediate Metabolite (hiPSC-CMs; [12]): BLOQ
- Intracellular Concentration, NTP Metabolite (hiPSC-CMs; [12]): BLOQ
- Intracellular Concentration, Prodrug (hiPSC-CMs; [13]): 173.0 ± 133.3 pmol/million cells
- Intracellular Concentration, Cleavage Intermediate Metabolite (hiPSC-CMs; [17]): BLOQ
- Intracellular Concentration, NTP Metabolite (hiPSC-CMs; [17]): BLOQ
- Intracellular Concentration, Prodrug (hiPSC-CMs; [14]): 53.5 ± 4.5 pmol/million cells
- Intracellular Concentration, Cleavage Intermediate Metabolite (hiPSC-CMs; [15]): BLOQ
- Intracellular Concentration, NTP Metabolite (hiPSC-CMs; [15]): BLOQ
- HR, % change from baseline ([3]; coadministration of 10 mg/kg MNI-2 and 2.5 mg/kg amiodarone IV (cumulative)): −9%
- HR, % change from baseline ([3]; cumulative IV infusion dose 10 mg/kg MNI-2 alone): −3%
- Plasma concentration of parent ([4]; agent + vehicle, End of Infusion 1): 4.2 ± 2.1 µM
- Plasma concentration of parent ([4]; agent + vehicle, End of Infusion 2): 4.2 ± 0.9 µM
- Plasma concentration of parent ([4]; agent + vehicle, End of Infusion 3): 3.9 ± 0.1 µM
- Plasma concentration of parent ([4]; agent + vehicle, End of Infusion 4): 3.7 ± 1.0 µM
- Plasma concentration of parent ([4]; treatment MNI-2+AMIO, End of Infusion 1): 3.0 ± 0.8 µM
- Plasma concentration of parent ([4]; treatment MNI-2+AMIO, End of Infusion 2): 3.5 ± 1.0 µM
- Plasma concentration of parent ([4]; treatment MNI-2+AMIO, End of Infusion 3): 3.7 ± 0.6 µM
- Plasma concentration of parent ([4]; treatment MNI-2+AMIO, End of Infusion 4): 3.7 ± 0.9 µM
- Cleavage intermediate metabolite and NTP metabolite in cardiac tissue [1]: did not produce detectable levels
- Effect on HR ([5]; IV infusion of MNI-2 (4, then 2 mg/kg/30 min), alone or after prior administration of amiodarone (3 mg/kg/30 min)): no effect
- MBP or PR, QRS, QT ECG interval changes ([5]; IV infusion of MNI-2 alone or after pretreatment with amiodarone): did not result in MBP or PR, QRS, QT ECG interval changes
- Plasma concentration [6]: 3048 ± 413 ng/mL

Structure (SMILES): CCCCc1oc2ccccc2c1C(=O)c1cc(I)c(OCCN(CC)CC)c(I)c1 [amiodarone]
- HR, % change from baseline [7]: −7%
